Results from US11420998B2, “Aromatic-cationic peptides and methods for using same” (Stealth Biotherapeutics Inc., priority 2011, dated 2022).
Square brackets hold non-standard residues; d marks the D form. Ends that are not written are not given here. Peptide text beside a SMILES is read from it. Dmt = Cc1cc(O)cc(C)c1C[C@H](N)C(=O)O

Columns and labels:
[1] = target: mu-opioid receptor (Homo sapiens, UniProt P35372); details: stated without data; assays cited; cited from earlier work
[2] = tested on: several mammalian cell types; details: energy-independent manner (Zhao et al., 2003); cited from earlier work
[3] = in vivo
Method: Six weeks after induction of RAS, animals were similarly anesthetized, the degree of stenosis determined by angiography, and subjects were treated with PTRA or sham. Heating pads maintained the animal's body temperature by about 37° C. during surgery, and PTRA and stenting performed under fluoroscopic guidance, as previously described. In addition, ARAS subjects were treated with a continuous intravenous infusion of peptide 0.050 mg/kg or an equal volume of saline vehicle from 30 min before to 3.5 hrs after PTRA or sham. […] Urinary samples were collected before peptide infusion and 210 min after PTRA.
4 mL venous whole blood samples were collected from peptide-treated animals at baseline (immediately before peptide infusion), immediately before PTRA, and 30 and 180 min post-reperfusion. Venous blood were drawn using syringes into BD Vacutainer® PST™ Plasma Separation Tubes (lavender top) containing K2EDTA, 10 mL/tube. Tubes were gently inverted 8 times and kept in an ice water bath until centrifugation. Within an hour samples were centrifuged in a swing bucket centrifuge at 1000-1300 RCF (or […]) for 15 min at 4° C. Plasma were harvested from individual blood tubes, placed in a single polypropylene vials (or screw-cap tubes) and stored at approximately −80° C. until assay.
The plasma concentration of D-Arg-2′,6′-Dmt-Lys-Phe-NH2 was determined using a qualified LC/MS/MS assay in K2-EDTA pig plasma. The assay employed deuterium labeled d5-D-Arg-2′,6′-Dmt-Lys-Phe-NH2 as the analytical internal standard (IS). […] Positive (M+2H)^2+ ions for D-Arg-2′,6′-Dmt-Lys-Phe-NH2 and the IS (d5-D-Arg-2′,6′-Dmt-Lys-Phe-NH2) were monitored in MRM mode. Drug-to-IS peak area ratios for the standards were used to create a linear calibration curve ranging from 2.5 to 1000 ng/mL.
Peptide IV infusion started at 30 minutes prior to the PTRA procedure and continued for 210 minutes at 0.05 mg/kg/h.

[4] = tested on: inner mitochondrial membrane; details: cited from earlier work

mu-opioid receptor, sequence (P35372 whole entry, species assumed): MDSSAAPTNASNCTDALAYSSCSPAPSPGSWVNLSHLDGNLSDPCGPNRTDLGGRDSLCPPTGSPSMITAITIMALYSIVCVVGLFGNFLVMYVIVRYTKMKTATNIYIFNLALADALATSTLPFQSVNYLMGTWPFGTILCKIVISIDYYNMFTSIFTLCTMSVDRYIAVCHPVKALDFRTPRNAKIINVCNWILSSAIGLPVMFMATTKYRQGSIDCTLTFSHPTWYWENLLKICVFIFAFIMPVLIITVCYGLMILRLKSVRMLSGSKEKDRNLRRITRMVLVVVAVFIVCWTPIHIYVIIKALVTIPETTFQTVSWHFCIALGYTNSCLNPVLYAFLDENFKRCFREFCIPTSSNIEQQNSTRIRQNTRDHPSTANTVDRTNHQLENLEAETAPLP

For Tyr-D-Arg-Phe-Lys-NH2, the “mu-opioid receptor agonist activity” value [1] is given as “has mu-opioid receptor agonist activity”.
For 2′,6′-Dmt-D-Arg-Phe-Lys-NH2, the “penetration of the plasma membrane” value [2] is listed as “readily penetrates”.
With `Cc1cc(O)cc(C)c1C[C@H](NC(=O)[C@H](N)CCCNC(=N)N)C(=O)N[C@@H](CCCCN)C(=O)N[C@@H](Cc1ccccc1)C(N)=O` [D-Arg-2′,6′-Dmt-Lys-Phe-NH2] (H-[dR][Dmt]KF-NH2) the “Mean peptide Concentration” value ([3]; 0 min from peptide infusion (−30 min from PTRA), 3.5-h IV infusion 0.05 mg/kg/h) was “BQL”, the “Mean peptide Concentration” value ([3]; 30 min from peptide infusion (time of PTRA), IV infusion 0.05 mg/kg/h) was 100.6 ± 36.2 ng/mL and the “Mean peptide Concentration” value ([3]; 30 min from peptide infusion (time of PTRA), IV infusion 0.05 mg/kg/h, listed as Peptide) was 100.6 ng/mL. It also gave a level at 0.5 h ([3]; pig, plasma, iv, 0.05 mg/kg/h, Mean peptide Concentration, 30 min from peptide infusion (time of PTRA), IV infusion 0.05 mg/kg/h) of about 100 ng/mL, a level at 1 h ([3]; pig, plasma, iv, 0.05 mg/kg/h, Mean peptide Concentration, 60 min from peptide infusion (30 min from PTRA), IV infusion 0.05 mg/kg/h) of 118 ± 23.7 ng/mL and a level at 1.5 h ([3]; pig, plasma, iv, 0.05 mg/kg/h, Mean peptide Concentration, 90 min from peptide infusion (60 min from PTRA), IV infusion 0.05 mg/kg/h) of 125 ± 21.4 ng/mL. For the same compound, the level at 3.5 h ([3]; pig, plasma, iv, 0.05 mg/kg/h, Mean peptide Concentration, 210 min from peptide infusion (180 min from PTRA), IV infusion 0.05 mg/kg/h) was 111 ± 42 ng/mL, the “time to apparent steady state concentration” value ([3]; post start of IV infusion) was 60 to 90 min and the “concentration in the inner mitochondrial membrane” value [4] was 500-5000 fold.
In the case of F[dR]FK-NH2, the “mu-opioid receptor agonist activity” value [1] is given as “does not have mu-opioid receptor agonist activity”.
